Measured values published in patent US4927975A, “Process for preparing certain decahydro-7H-3-ol-7-ones” (Roussel Uclaf, priority 1981, dated 1990).

Key:
prostate = assay: In vivo study with hamsters: prostate weight (male, castrated, testosterone propionate-treated, topical test product); parameters: species or system Male golden hamsters; settings: for Prostate in mg: Table II, testosterone propionate s.c. alone or + product B 1 mg/day topical, 8 days
Protocol: (§1) B. In vivo study with costovertebral organ of hamsters
(§2) Male golden hamsters weighing 100 to 110 g castrated 7 days earlier received a subcutaneous injection of 125 μg per day and per animal of testosterone propionate in 0.2 ml of a sesame oil solution containing 0.5% of benzyl alcohol. One group of animals received also a treatment by topical application of an ethanol solution of the test compound on the right costovertebral organ and the left costovertebral organ received only ethanol. The treatment lasted for 8 days and 24 hours after the last, the costovertebral organs and the prostate were removed and weighed.

male mice = assay: Acute toxicity in male mice; assay type: in vivo; settings: 7th day
Protocol: Five male mice weighing 18 to 20 g received an intraperitoneal or oral administration of decreasing doses of product B in aqueous solution containing 0.25% of carboxymethyl cellulose and 0.2% of Tween at 1000, 600 or 400 mg/kg and the number of dead mice was determined on the 7th day. The DLo or the more elevated dose at which no mortality was observed was determined to be 400 mg/kg intraperitoneally and 1000 mg/kg orally for product B.

[1] = system: costovertebral organ of hamsters; assay: In vivo study with costovertebral organ of hamsters (male, castrated, testosterone propionate-treated, topical test product); parameters: species or system Male golden hamsters; settings: for Control Gland in mg / Treated Gland in mg: Table II, 8 days; for Control Gland in mg: left costovertebral organ (ethanol only), testosterone propionate s.c. alone or + product B 1 mg/day; for Treated Gland in mg: testosterone propionate s.c. alone or + product B 1 mg/day topical
Protocol: as §1, §2

[2] = system: costovertebral organ of hamsters; assay: Costovertebral organ study repeated with female hamsters (antiandrogenic activity, topical); assay type: in vivo; settings: for inhibition of the weight increase of the organ: right costovertebral organ, topical 5 mg/day
Protocol: as §2
The study was repeated with female hamsters to test the antiandrogenic activity of the compounds of Examples 7 and 13 at a dose of 5 mg/day and the results are reported in Table III.
The test was repeated on female hamsters to determine the antiandrogenic activity of the compounds of Examples 13 to 17 at 1 mg/day and the results are reported in Table IV.

[3] = Table III, testosterone propionate alone or + product 5 mg/day
[4] = Table III, testosterone propionate alone or + product 5 mg/day topical
[5] = Table IV, testosterone propionate alone or + product 1 mg/day
[6] = Table IV, testosterone propionate alone or + product 1 mg/day topical

CCC1=C2CC[C@@]3(C)C(CC[C@@H]3O)C2CCC1=O (stereo partly drawn) [Product B, 3aβ-methyl-6-ethyl-1,2,3,3a,4,5,8,9,9a,9b-decahydro-7-H-benz(e)-inden-3β-ol-7-one]
Prostate in mg (prostate): 80,1 ± 9,3 mg | systemic effect (prostate; inferred from untreated gland and prostate after local application): does not have a systemic effect | antagonism of the effect of testosterone propionate on the prostate (prostate; product applied locally to right costovertebral organ): did not antagonize the effect of testosterone propionate on the untreated gland or the prostate | DLo (more elevated dose at which no mortality was observed) (male mice; intraperitoneal): 400 mg/kg | DLo (more elevated dose at which no mortality was observed) (male mice; oral): 1000 mg/kg | Control Gland in mg [1]: 41,8 ± 5,2 mg | Treated Gland in mg ([1]; right costovertebral organ): 17,1 ± 2,2 mg | antagonism of the effect of testosterone propionate on the untreated gland ([1]; left (untreated) gland, product applied locally to right costovertebral organ): did not antagonize the effect of testosterone propionate on the untreated gland | inhibition in the weight increase of the organ ([1]; right costovertebral organ, male hamsters, topical 1 mg/day): 61%

CCC(=O)O[C@H]1CC[C@H]2[C@@H]3CCC4=CC(=O)CC[C@]4(C)[C@H]3CC[C@]12C [Testosterone Propionate, testosterone propionate, reference compound]
Prostate in mg (prostate): 79,5 ± 5,5 mg | Control Gland in mg [2, 3]: 15,8 ± 1,0 mg | Treated Gland in mg [2, 4]: 14,9 ± 1,1 mg | Control Gland in mg [2, 5]: 11,0 ± 2,0 mg | Treated Gland in mg [2, 6]: 10,2 ± 0,6 mg | Control Gland in mg [1]: 35,8 ± 5,0 mg | Treated Gland in mg ([1]; right costovertebral organ): 33,91 ± 2,9 mg

CCC1=C2CC[C@@]3(C)C(CC[C@@H]3OC(C)=O)C2CCC1=O (stereo partly drawn) [Example 13, 3β-acetoxy-3aβ-methyl-6-ethyl-1,2,3,3a,4,5,8,9,9a,9b-decahydro-7H-benz(e)-inden-7-one]
Control Gland in mg [2, 3]: 10,8 ± 2,1 mg | Treated Gland in mg [2, 4]: 3,9 ± 0,4 mg | % inhibition of weight increase ([2]; Table IV, 1 mg/day topical): 61% | Control Gland in mg [2, 5]: 9,9 ± 1,6 mg | Treated Gland in mg [2, 6]: 6,0 ± 0,2 mg | inhibition of the weight increase of the organ [2]: 95.6%

CCCC(=O)O[C@H]1CCC2C3CCC(=O)C(CC)=C3CC[C@@]21C (stereo partly shown) [Example 7, Butanoate of 3aβ-methyl-6-ethyl-7-oxo-1,2,3,3a,4,5,8,9,9a,9b-decahydro-1H-benz(e)-inden-3-yl]
Control Gland in mg [2, 3]: 9,5 ± 0,8 mg | Treated Gland in mg [2, 4]: 4,5 ± 0,4 mg | inhibition of the weight increase of the organ [2]: 90%
